Data set [1] is described as follows: Stability in 1% human serum assessed as full length product after 10 mins. It counts as ADME, cell-free. To be noted: read-out: Stability.
The target of data set [2] is T1, Toll-like receptor 7 (Homo sapiens) (UniProt Q9NYK1).
T1 sequence (whole entry): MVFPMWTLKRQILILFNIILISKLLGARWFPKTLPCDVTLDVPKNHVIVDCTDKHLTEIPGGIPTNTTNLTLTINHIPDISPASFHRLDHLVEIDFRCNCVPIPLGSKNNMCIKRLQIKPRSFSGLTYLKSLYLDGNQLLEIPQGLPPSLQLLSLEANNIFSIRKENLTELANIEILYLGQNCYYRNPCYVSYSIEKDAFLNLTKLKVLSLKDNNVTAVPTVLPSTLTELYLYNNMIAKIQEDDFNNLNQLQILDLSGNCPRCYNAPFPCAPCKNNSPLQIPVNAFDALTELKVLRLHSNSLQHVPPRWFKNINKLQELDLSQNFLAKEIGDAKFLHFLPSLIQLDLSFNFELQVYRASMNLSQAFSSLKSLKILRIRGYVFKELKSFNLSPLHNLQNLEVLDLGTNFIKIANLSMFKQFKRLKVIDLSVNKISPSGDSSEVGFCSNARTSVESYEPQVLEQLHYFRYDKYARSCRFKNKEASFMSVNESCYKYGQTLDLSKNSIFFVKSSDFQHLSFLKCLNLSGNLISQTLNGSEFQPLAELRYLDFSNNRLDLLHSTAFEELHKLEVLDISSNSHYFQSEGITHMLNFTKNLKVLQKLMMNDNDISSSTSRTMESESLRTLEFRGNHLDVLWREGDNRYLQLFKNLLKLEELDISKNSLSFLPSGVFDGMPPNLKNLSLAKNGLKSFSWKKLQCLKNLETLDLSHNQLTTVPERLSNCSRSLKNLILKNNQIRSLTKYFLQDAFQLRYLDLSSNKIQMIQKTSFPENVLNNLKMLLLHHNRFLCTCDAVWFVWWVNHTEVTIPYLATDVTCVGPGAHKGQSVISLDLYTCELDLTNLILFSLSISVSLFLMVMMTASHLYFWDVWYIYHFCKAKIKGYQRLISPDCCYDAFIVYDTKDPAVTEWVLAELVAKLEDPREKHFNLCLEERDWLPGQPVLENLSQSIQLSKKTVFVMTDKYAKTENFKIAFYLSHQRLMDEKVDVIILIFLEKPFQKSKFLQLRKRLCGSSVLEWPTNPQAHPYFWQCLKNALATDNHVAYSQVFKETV
The data set can be described thus: Activation of human TLR7 expressed in HEK293 cells assessed as increase in NF-kappaB activation at 100 ug/ml by SEAP assay. It counts as cell-based.

In data set [3] the target is T2, Toll-like receptor 8 (Homo sapiens) (UniProt Q9NR97).
T2 sequence (whole entry): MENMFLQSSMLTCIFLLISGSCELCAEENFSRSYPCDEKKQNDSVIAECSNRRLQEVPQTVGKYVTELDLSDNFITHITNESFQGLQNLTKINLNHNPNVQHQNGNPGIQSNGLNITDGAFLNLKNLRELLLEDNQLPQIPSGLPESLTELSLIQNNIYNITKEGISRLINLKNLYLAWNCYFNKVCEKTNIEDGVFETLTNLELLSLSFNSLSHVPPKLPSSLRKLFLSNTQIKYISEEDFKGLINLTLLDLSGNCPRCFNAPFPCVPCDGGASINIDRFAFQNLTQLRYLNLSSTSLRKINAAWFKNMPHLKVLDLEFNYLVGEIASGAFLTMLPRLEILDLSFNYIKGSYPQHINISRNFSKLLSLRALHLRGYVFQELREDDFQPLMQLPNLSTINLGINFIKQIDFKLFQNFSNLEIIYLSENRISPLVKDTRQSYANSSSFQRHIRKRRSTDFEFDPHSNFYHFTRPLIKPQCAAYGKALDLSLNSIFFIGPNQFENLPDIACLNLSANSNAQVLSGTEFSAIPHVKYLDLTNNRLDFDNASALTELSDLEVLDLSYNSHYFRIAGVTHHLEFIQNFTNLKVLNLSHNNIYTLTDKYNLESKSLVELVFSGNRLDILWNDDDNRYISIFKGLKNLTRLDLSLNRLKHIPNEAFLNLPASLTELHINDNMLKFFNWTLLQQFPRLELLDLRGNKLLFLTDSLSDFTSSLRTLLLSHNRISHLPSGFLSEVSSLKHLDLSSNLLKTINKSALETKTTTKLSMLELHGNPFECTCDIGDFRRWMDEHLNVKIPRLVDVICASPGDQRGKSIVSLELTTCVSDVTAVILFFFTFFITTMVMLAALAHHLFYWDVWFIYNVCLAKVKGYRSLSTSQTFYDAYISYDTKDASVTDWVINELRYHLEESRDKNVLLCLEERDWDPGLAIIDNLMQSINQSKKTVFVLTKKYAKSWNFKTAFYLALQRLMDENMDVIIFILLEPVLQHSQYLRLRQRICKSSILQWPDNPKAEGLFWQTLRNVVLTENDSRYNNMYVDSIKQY
The data set can be described thus: Activation of human TLR8 expressed in HEK293 cells assessed as increase in NF-kappaB activation at 100 ug/ml by SEAP assay. The data set is classed as cell-based.

Activity calls are given as the source filed them. The calls are words filed in the database; no cut-off is given here.

From ChEMBL document CHEMBL1156502, “Stabilized immune modulatory RNA compounds as agonists of Toll-like receptors 7 and 8” (Proc Natl Acad Sci U S A, 2007) come the findings set out here.

Consider `Nc1ccn([C@@H]2O[C@H](COP(O)(=S)O[C@H]3[C@@H](O)[C@H](n4cnc5c(=O)[nH]c(N)nc54)O[C@@H]3COP(O)(=S)O[C@H]3[C@@H](O)[C@H](n4ccc(=O)[nH]c4=O)O[C@@H]3COCCCCCO)[C@@H](OP(O)(=S)OC[C@H]3O[C@@H](n4ccc(=O)[nH]c4=O)[C@H](O)[C@@H]3OP(O)(=S)OC[C@H]3O[C@@H](n4cnc5c(=O)[nH]c(N)nc54)[C@H](O)[C@@H]3OP(O)(=S)OC[C@H]3O[C@@H](n4ccc(N)nc4=O)[C@H](O)[C@@H]3OP(O)(=S)OC[C@H]3O[C@@H](n4ccc(=O)[nH]c4=O)[C@H](O)[C@@H]3OP(O)(=S)OC[C@H]3O[C@@H](n4ccc(=O)[nH]c4=O)[C@H](O)[C@@H]3OP(O)(=S)OC[C@H]3O[C@@H](n4cnc5c(=O)[nH]c(N)nc54)[C@H](O)[C@@H]3OP(O)(=S)OC[C@H]3O[C@@H](n4ccc(=O)[nH]c4=O)[C@H](O)[C@@H]3OP(O)(=S)OC[C@H]3O[C@@H](n4cnc5c(=O)[nH]c(N)nc54)[C@H](O)[C@@H]3OP(O)(=S)OCC(O)COP(O)(=S)O[C@H]3[C@@H](O)[C@H](n4cnc5c(=O)[nH]c(N)nc54)O[C@@H]3COP(O)(=S)O[C@H]3[C@@H](O)[C@H](n4ccc(=O)[nH]c4=O)O[C@@H]3COP(O)(=S)O[C@H]3[C@@H](O)[C@H](n4cnc5c(=O)[nH]c(N)nc54)O[C@@H]3COP(O)(=S)O[C@H]3[C@@H](O)[C@H](n4ccc(=O)[nH]c4=O)O[C@@H]3COP(O)(=S)O[C@H]3[C@@H](O)[C@H](n4ccc(=O)[nH]c4=O)O[C@@H]3COP(O)(=S)O[C@H]3[C@@H](O)[C@H](n4ccc(N)nc4=O)O[C@@H]3COP(O)(=S)O[C@H]3[C@@H](O)[C@H](n4cnc5c(=O)[nH]c(N)nc54)O[C@@H]3COP(O)(=S)O[C@H]3[C@@H](O)[C@H](n4ccc(=O)[nH]c4=O)O[C@@H]3COP(O)(=S)O[C@H]3[C@@H](O)[C@H](n4ccc(N)nc4=O)O[C@@H]3COP(O)(=S)O[C@H]3[C@@H](O)[C@H](n4cnc5c(=O)[nH]c(N)nc54)O[C@@H]3COP(O)(=S)O[C@H]3[C@@H](O)[C@H](n4ccc(=O)[nH]c4=O)O[C@@H]3COCCCCCO)[C@H]2O)c(=O)n1` (some centres undefined), for which, in data set [1], the remaining at 10 min was found to be 82%. Also, the result in data set [2] was inactive. Further, the outcome in data set [3] was Active.

On to `Nc1ccn([C@@H]2O[C@H](COP(O)(=S)O[C@H]3[C@@H](O)[C@H](n4ccc(N)nc4=O)O[C@@H]3COP(O)(=S)O[C@H]3[C@@H](O)[C@H](n4cnc5c(=O)[nH]c(N)nc54)O[C@@H]3COP(O)(=S)O[C@H]3[C@@H](O)[C@H](n4ccc(=O)[nH]c4=O)O[C@@H]3COP(O)(=S)O[C@H]3[C@@H](O)[C@H](n4ccc(N)nc4=O)O[C@@H]3COP(O)(=S)O[C@H]3[C@@H](O)[C@H](n4cnc5c(=O)[nH]c(N)nc54)O[C@@H]3COP(O)(=S)O[C@H]3[C@@H](O)[C@H](n4ccc(=O)[nH]c4=O)O[C@@H]3CO)[C@@H](OP(O)(=S)OC[C@H]3O[C@@H](n4ccc(=O)[nH]c4=O)[C@H](O)[C@@H]3OP(O)(=S)OC[C@H]3O[C@@H](n4ccc(=O)[nH]c4=O)[C@H](O)[C@@H]3OP(O)(=S)OC[C@H]3O[C@@H](n4ccc(=O)[nH]c4=O)[C@H](O)[C@@H]3OP(O)(=S)OC[C@H]3O[C@@H](n4cnc5c(=O)[nH]c(N)nc54)[C@H](O)[C@@H]3OP(O)(=S)OCC(O)COP(O)(=S)O[C@H]3[C@@H](O)[C@H](n4cnc5c(=O)[nH]c(N)nc54)O[C@@H]3COP(O)(=S)O[C@H]3[C@@H](O)[C@H](n4ccc(=O)[nH]c4=O)O[C@@H]3COP(O)(=S)O[C@H]3[C@@H](O)[C@H](n4ccc(=O)[nH]c4=O)O[C@@H]3COP(O)(=S)O[C@H]3[C@@H](O)[C@H](n4ccc(=O)[nH]c4=O)O[C@@H]3COP(O)(=S)O[C@H]3[C@@H](O)[C@H](n4ccc(N)nc4=O)O[C@@H]3COP(O)(=S)O[C@H]3[C@@H](O)[C@H](n4ccc(N)nc4=O)O[C@@H]3COP(O)(=S)O[C@H]3[C@@H](O)[C@H](n4cnc5c(=O)[nH]c(N)nc54)O[C@@H]3COP(O)(=S)O[C@H]3[C@@H](O)[C@H](n4ccc(=O)[nH]c4=O)O[C@@H]3COP(O)(=S)O[C@H]3[C@@H](O)[C@H](n4ccc(N)nc4=O)O[C@@H]3COP(O)(=S)O[C@H]3[C@@H](O)[C@H](n4cnc5c(=O)[nH]c(N)nc54)O[C@@H]3COP(O)(=S)O[C@H]3[C@@H](O)[C@H](n4ccc(=O)[nH]c4=O)O[C@@H]3CO)[C@H]2O)c(=O)n1` (some centres undefined), for which the remaining at 10 min in data set [1] came out at 66%. Further, the outcome in data set [2] was inactive. The outcome in data set [3] was Active.

`Nc1nc2c(ncn2[C@@H]2O[C@H](COP(O)(=S)O[C@H]3[C@@H](O)[C@H](n4ccc(=O)[nH]c4=O)O[C@@H]3COP(O)(=S)O[C@H]3[C@@H](O)[C@H](n4ccc(=O)[nH]c4=O)O[C@@H]3COP(O)(=S)O[C@H]3[C@@H](O)[C@H](n4ccc(=O)[nH]c4=O)O[C@@H]3COP(O)(=S)O[C@H]3[C@@H](O)[C@H](n4cnc5c(=O)[nH]c(N)nc54)O[C@@H]3COP(O)(=S)O[C@H]3[C@@H](O)[C@H](n4ccc(=O)[nH]c4=O)O[C@@H]3COP(O)(=S)O[C@H]3[C@@H](O)[C@H](n4ccc(=O)[nH]c4=O)O[C@@H]3COP(O)(=S)O[C@H]3[C@@H](O)[C@H](n4cnc5c(=O)[nH]c(N)nc54)O[C@@H]3COP(O)(=S)O[C@H]3[C@@H](O)[C@H](n4cnc5c(=O)[nH]c(N)nc54)O[C@@H]3COP(O)(=S)O[C@H]3[C@@H](O)[C@H](n4ccc(=O)[nH]c4=O)O[C@@H]3COP(O)(=S)O[C@H]3[C@@H](O)[C@H](n4ccc(=O)[nH]c4=O)O[C@@H]3CO)[C@@H](OP(O)(=S)OCC(O)COP(O)(=S)O[C@H]3[C@@H](O)[C@H](n4cnc5c(=O)[nH]c(N)nc54)O[C@@H]3COP(O)(=S)O[C@H]3[C@@H](O)[C@H](n4ccc(=O)[nH]c4=O)O[C@@H]3COP(O)(=S)O[C@H]3[C@@H](O)[C@H](n4ccc(=O)[nH]c4=O)O[C@@H]3COP(O)(=S)O[C@H]3[C@@H](O)[C@H](n4ccc(=O)[nH]c4=O)O[C@@H]3COP(O)(=S)O[C@H]3[C@@H](O)[C@H](n4cnc5c(=O)[nH]c(N)nc54)O[C@@H]3COP(O)(=S)O[C@H]3[C@@H](O)[C@H](n4ccc(=O)[nH]c4=O)O[C@@H]3COP(O)(=S)O[C@H]3[C@@H](O)[C@H](n4ccc(=O)[nH]c4=O)O[C@@H]3COP(O)(=S)O[C@H]3[C@@H](O)[C@H](n4cnc5c(=O)[nH]c(N)nc54)O[C@@H]3COP(O)(=S)O[C@H]3[C@@H](O)[C@H](n4cnc5c(=O)[nH]c(N)nc54)O[C@@H]3COP(O)(=S)O[C@H]3[C@@H](O)[C@H](n4ccc(=O)[nH]c4=O)O[C@@H]3COP(O)(=S)O[C@H]3[C@@H](O)[C@H](n4ccc(=O)[nH]c4=O)O[C@@H]3CO)[C@H]2O)c(=O)[nH]1` (some centres undefined): the remaining at 10 min in data set [1] was found to be 94%. Also, in data set [2], the result was inactive. In addition, the outcome in data set [3] was Active.
